# Assay results published in US20220087996A1, “Histone acetylase p300 inhibitor and use thereof” (HINOVA PHARMACEUTICALS INC., priority 2018, published 2022).
# Tested on: CWR22RV1 cells
# Test: Inhibition of proliferation of CWR22RV1 cells (CCK-8)
# Assay type: cell-based, human
# Settings: 6 days culture, read-out: IC50 against CWR22RV1 cells
# Method: 1) CWR22RV1 cells were subcultured in cell culture medium, and the cells in good growth condition were seeded in a 96-well plate, 80 μL for each well, and the cell number in each well was 1500. The plate was incubated overnight in a 37° C., 5% CO2 cell incubator. 2) The drug was prepared as 30 mM stock solution with dimethyl sulfoxide (DMSO). Prior to use, the stock solution was diluted 3 times with DMSO, and then further diluted as 3-fold gradient to obtain 9 concentration gradients. Then, each concentration of compound was diluted 200 times with the culture solution (ensuring that the DMSO concentration in the culture system was 0.1%), and two replicate wells were set for each concentration. 20 μL of diluted compound solution was added to the cell culture well (with final concentrations of 10 μM, 3.3 μM. 1.1 μM . . . ), and the plate was gently shaken to mix. In addition, 3 negative control wells containing only cells and 3 blank control wells containing only culture medium were included (6 wells were each added 20 μL DMSO diluted 200 times with culture medium). 2. Result detection: (1) After culturing for 6 days, 10 μL CCK-8 was added to each well, and the plate was continually cultured in a 37° C., 5% CO2 cell incubator for 2.5 h. (2) The absorbance (OD value) was detected at 450 nm using a multifunctional microplate reader. (3) The data were analyzed by Dose-response-inhibition equation in the software GraphPad Prism6, and the IC50 value was obtained.
row,Structure (SMILES),IC50 [nM]
1,CNC(=O)Nc1ccc2c(c1)CC[C@@]21OC(=O)N(CC(=O)N2CCCC2c2ccccc2C)C1=O (stereo partly shown) [Example 324],> 2000

# Same assay, conditions: Homo sapiens, CWR22Rv1, 144 h, 6 days culture, read-out: IC50 against CWR22RV1 cells
row,Structure (SMILES),IC50 [nM]
1,"C=C[C@H]1CC[C@@H](c2ccc(F)cc2)N1C(=O)CN1C(=O)O[C@@]2(CCc3cc(NC(=O)NC)ccc32)C1=O [Example 367, 1-((R)-3′-(2-((2S,5R)-2-(4-fluorophenyl)-5-vinylpyrrolidin-1-yl)-2-oxoethyl)-2′,4′-dioxo-2,3-dihydrospiro[indene-1,5′-oxazolidine]-5-yl)-3-methylurea]",500 to 2000
2,"CNC(=O)Nc1ccc2c(c1)CC[C@@]21OC(=O)N(CC(=O)N2C(C)CCC2c2ccc(F)c(Cl)c2)C1=O (stereo partly drawn) [Example 359, 1-((1R)-3′-(2-(2-(3-chloro-4-fluorophenyl)-5-methylpyrrolidin-1-yl)-2-oxoethyl)-2′,4′-dioxo-2,3-dihydrospiro[indene-1,5′-oxazolidine]-5-yl)-3-methylurea]",≤ 500
3,"CNC(=O)Nc1ccc2c(c1)CC[C@@]21OC(=O)N(CC(=O)N2CCCc3ccc(C(F)(F)F)cc32)C1=O [Example 300, (R)-1-(2′,4′-dioxo-3′-(2-oxo-2-(7-(trifluoromethyl)-3,4-dihydroquinolin-1(2H)-yl)ethyl)-2,3-dihydrospiro[indene-1,5′-oxazolidine]-5-yl)-3-methylurea]",> 2000
4,"CNC(=O)Nc1cc2c(cc1F)[C@]1(CC2)OC(=O)N(CC(=O)N2[C@@H](C)CC[C@H]2c2ccc(F)c(F)c2)C1=O [Example 391, 1-((S)-3′-(2-((2S,5S)-2-(3,4-difluorophenyl)-5-methylpyrrolidin-1-yl)-2-oxoethyl)-6-fluoro-2′,4′-dioxo-2,3-dihydrospiro[indene-1,5′-oxazolidine]-5-yl)-3-methylurea]",> 2000
5,CNC(=O)Nc1ccc2c(c1)CC[C@]21OC(=O)N(CC(=O)N2CCCC[C@H]2c2ccccc2)C1=O [Example 4],> 2000
6,"CNC(=O)Nc1ccc2c(c1)CC[C@@]21OC(=O)N(CC(=O)NC2C(C)(C)C(O)C2(C)C)C1=O (stereo partly drawn) [Example 105, (R)—N-(3-hydroxyl-2,2,4,4-tetramethylcyclobutyl)-2-(5-(3-Methylureido)-2′,4′-dioxo-2,3-dihydrospiro[indene-1,5′-oxazole]-3′-yl)acetamide]",> 2000
7,CNC(=O)Nc1ccc2c(c1)CC[C@@]21OC(=O)N(CC(=O)N2CCOC[C@@H]2c2ccccc2)C1=O [Example 107],> 2000
8,"CNC(=O)Nc1ccc2c(c1)CC[C@@]21OC(=O)N(CC(=O)N2CCCC2c2ccccc2OC)C1=O (single isomer, unassigned) [Example 338]",> 2000
9,"CNC(=O)Nc1ccc2c(c1)CC[C@@]21OC(=O)N(CC(=O)N2CCC[C@H]2C#N)C1=O [Example 331, 1-((R)-3′-(2-((S)-2-cyanopyrrolidin-1-yl)-2-oxoethyl)-2′,4′-dioxo-2,3-dihydrospiro[indene-1,5-oxazolidine]-5-yl)-3-methylurea]",> 2000
10,"CNC(=O)Nc1ccc2c(c1F)CC[C@]21OC(=O)N(CC(=O)N2[C@@H](C)CC[C@H]2c2cc(F)c(F)c(F)c2)C1=O [Example 382, 1-((S)-4-fluoro-3′-(2-((2S,5S)-2-methyl-5-(3,4,5-trifluorophenyl)pyrrolidin-1-yl)-2-oxoethyl)-2′,4′-dioxo-2,3-dihydrospiro[indene-1,5′-oxazolidine]-5-yl)-3-methylurea]",> 2000
11,"CNC(=O)Nc1ccc2c(c1)CC[C@@]21OC(=O)N(CC(=O)N2C(c3ccncc3)CC[C@@H]2C)C1=O (stereo partly drawn) [Example 375, 1-methyl-3-(3′-(2-((2S)-2-methyl-5-(pyridin-4-yl)pyrrolidin-1-yl)-2-oxoethyl)-2′,4′-dioxo-2,3-dihydrospiro[indene-1,5′-oxazolidine]-5-yl)urea]",> 2000
12,"CNC(=O)Nc1ccc2c(c1F)CC[C@@]21OC(=O)N(CC(=O)N2[C@@H](C)CC[C@H]2c2cc(F)c(F)c(F)c2)C1=O [Example 384, 1-((R)-4-fluoro-3′-(2-((2S,5S)-2-methyl-5-(3,4,5-trifluorophenyl)pyrrolidin-1-yl)-2-oxoethyl)-2′,4′-dioxo-2,3-dihydrospiro[indene-1,5′-oxazolidine]-5-yl)-3-methylurea]",> 2000
13,"CNC(=O)Nc1ccc2c(c1)CC[C@@]21OC(=O)N(CC(=O)N2C(c3ccc(F)cc3)CCC2(C)C)C1=O (stereo partly drawn) [Example 365, 1-((1R)-3′-(2-(5-(4-fluorophenyl)-2,2-dimethylpyrrolidin-1-yl)-2-oxoethyl)-2′,4′-dioxo-2,3-dihydrospiro[indene-1,5′-oxazolidine]-5-yl)-3-methylurea]",500 to 2000
14,"CNC(=O)Nc1ccc2c(c1)CC[C@@]21OC(=O)N(CC(=O)N2CCCC3CCCCC32)C1=O (stereo partly drawn) [Example 12, 1-methyl-3-((1R)-3′-(2-(octahydroquinolin-1-(2H)-yl)-2-oxoethyl)-2′,4′-dioxo-2,3-dihydrospiro[indene-1,5′-oxazolidine]-5-yl)urea]",> 2000
15,"CNC(=O)Nc1ccc2c(c1)CC[C@@]21OC(=O)N(CC(=O)N2CCCC2c2ccc(F)cc2OC)C1=O (stereo partly drawn) [Example 340, 1-((1R)-3′-(2-(2-(4-fluoro-2-methoxyphenyl)pyrrolidin-1-yl)-2-oxoethyl)-2′,4′-dioxo-2,3-dihydrospiro[indene-1,5′-oxazolidine]-5-yl)-3-methylurea]",> 2000
16,"CNC(=O)Nc1ccc2c(c1)CC[C@@]21OC(=O)N(CC(=O)N2CCCC2c2cccc[n+]2[O-])C1=O (stereo partly drawn) [Example 343, 2-(1-(2-((R)-5-(3-methylureido)-2′,4′-dioxo-2,3-dihydrospiro[indene-1,5′-oxazole]-3′-yl)acetyl)pyrrolidin-2-yl)pyridin-1-oxide]",> 2000
17,"CNC(=O)Nc1ccc2c(c1)CC[C@@]21OC(=O)N(CC(=O)N2C(C)CCC2c2ccc(F)cc2)C1=O (stereo partly drawn) [Example 348, 1-((1R)-3′-(2-(2-(4-fluorophenyl)-5-methylpyrrolidin-1-yl)-2-oxoethyl)-2′,4′-dioxo-2,3-dihydrospiro[indene-1,5′-oxazolidine]-5-yl)-3-methylurea]",≤ 500
18,"Cc1noc(C)c1-c1ccc2c(c1)C1(CC1)CC21OC(=O)N(CC(=O)N(Cc2ccc(F)cc2)[C@@H](C)C(F)(F)F)C1=O (stereo partly drawn) [Example 308, 2-(5-(3,5-dimethylisoxazol-4-yl)-2′,4′-dioxo-2,3-dihydrospiro[cyclopropane-indene-1,5′-oxazole]-3′-yl)-N-(4-fluorobenzyl)-N—((S)-1,1,1-trifluoropropan-2-yl)acetamide]",≤ 500
19,"CNC(=O)Nc1ccc2c(c1)CC[C@@]21OC(=O)N(CC(=O)N2CCCC2c2ccccc2F)C1=O (stereo partly drawn) [Example 323, 1-((1R)-3′-(2-(2-(2-fluorophenyl)pyrrolidin-1-yl)-2-oxoethyl)-2′,4′-dioxo-2,3-dihydrospiro[indene-1,5′-oxazolidine]-5-yl)-3-methylurea]",> 2000
20,"CNC(=O)Nc1ccc2c(c1)CC[C@@]21OC(=O)N(CC(=O)N2[C@@H](C)CC[C@H]2C2CCCCC2)C1=O [Example 357, 1-((R)-3′-(2-((2S,5S)-2-cyclohexyl-5-methylpyrrolidin-1-yl)-2-oxoethyl)-2′,4′-dioxo-2,3-dihydrospiro[indene-1,5′-oxazolidine]-5-yl)-3-methylurea]",≤ 500
21,"CNC(=O)Nc1ccc2c(c1)CC[C@@]21OC(=O)N(CC(=O)N2CCCC2c2ccc(OC)cc2OC)C1=O (stereo partly drawn) [Example 341, 1-((1R)-3′-(2-(2-(2,4-dimethoxyphenyl)pyrrolidin-1-yl)-2-oxoethyl)-2′,4′-dioxo-2,3-dihydrospiro[indene-1,5′oxazolidin]-5-yl)-3-methylurea]",> 2000
22,"CNC(=O)Nc1ccc2c(c1)CC[C@@]21OC(=O)N(CC(=O)N2CCc3ccccc3C2)C1=O [Example 100, (R)-1-(3′-(2-(3,4-dihydroisoquinolin-2(1H)-yl)-2-oxoethyl)-2′,4′-dioxo-2,3-dihydrospiro[indene 1,5′-oxazolidine]-5-yl)-3-methylurea]",> 2000
23,"CNC(=O)Nc1ccc2c(c1)CC[C@]21OC(=O)N(Cc2nnc(-c3ccccc3)o2)C1=O [Example 317, (S)-1-(2′,4′-dioxo-3′-((5-phenyl-1,3,4-oxadiazol-2-yl)methyl)-2,3-dihydrospiro[indene-1,5′-oxazolidine]-5-yl)-3-methylurea]",> 2000
24,"C[C@H]1CC[C@@H](c2ccc(F)cc2)N1C(=O)CN1C(=O)O[C@@]2(CCc3cc(NC(=O)C(F)F)ccc32)C1=O [Example 376, 2,2-difluoro-N—((R)-3′-(2-((2S,5S)-2-(4-fluorophenyl)-5-methylpyrrolidin-1-yl)-2-oxoethyl)-2′,4′-dioxo-2,3-dihydrospiro[indene-1,5′-oxazolidine]-5-yl)acetamide]",500 to 2000
25,"CNC(=O)Nc1ccc2c(c1)CC[C@@]21OC(=O)N(CC(=O)N2C(C)CCC2c2ccc(F)cc2OC)C1=O (stereo partly drawn) [Example 337, 1-((1R)-3′-(2-(2-(4-fluoro-2-methoxyphenyl)-5-methylpyrrolidin-1-yl)-2-oxoethyl)-2′,4′-dioxo-2,3-dihydrospiro[indene-1,5′-oxazolidine]-5-yl)-3-methylurea]",500 to 2000
26,CNC(=O)Nc1ccc2c(c1)CC[C@@]21OC(=O)N(CC(=O)N2CCCC2c2nccn2C)C1=O (stereo partly shown) [Example 111],> 2000

# Same assay, conditions: Homo sapiens, CWR22Rv1, 144 h, 6 days culture, read-out: IC50 against CWR22RV1 cells (text)
row,Structure (SMILES),IC50 [nM]
1,"CNC(=O)Nc1ccc2c(c1)CC[C@@]21OC(=O)N(CC(=O)N2C(C)CCC2c2ccc(F)c(Cl)c2)C1=O (stereo partly drawn) [Example 359, 1-((1R)-3′-(2-(2-(3-chloro-4-fluorophenyl)-5-methylpyrrolidin-1-yl)-2-oxoethyl)-2′,4′-dioxo-2,3-dihydrospiro[indene-1,5′-oxazolidine]-5-yl)-3-methylurea]",≤ 500
2,"CNC(=O)Nc1ccc2c(c1)CC[C@@]21OC(=O)N(CC(=O)N2C(C)CCC2c2ccc(F)cc2)C1=O (stereo partly drawn) [Example 348, 1-((1R)-3′-(2-(2-(4-fluorophenyl)-5-methylpyrrolidin-1-yl)-2-oxoethyl)-2′,4′-dioxo-2,3-dihydrospiro[indene-1,5′-oxazolidine]-5-yl)-3-methylurea]",≤ 500
3,"Cc1noc(C)c1-c1ccc2c(c1)C1(CC1)CC21OC(=O)N(CC(=O)N(Cc2ccc(F)cc2)[C@@H](C)C(F)(F)F)C1=O (stereo partly drawn) [Example 308, 2-(5-(3,5-dimethylisoxazol-4-yl)-2′,4′-dioxo-2,3-dihydrospiro[cyclopropane-indene-1,5′-oxazole]-3′-yl)-N-(4-fluorobenzyl)-N—((S)-1,1,1-trifluoropropan-2-yl)acetamide]",≤ 500
4,"CNC(=O)Nc1ccc2c(c1)CC[C@@]21OC(=O)N(CC(=O)N2[C@@H](C)CC[C@H]2C2CCCCC2)C1=O [Example 357, 1-((R)-3′-(2-((2S,5S)-2-cyclohexyl-5-methylpyrrolidin-1-yl)-2-oxoethyl)-2′,4′-dioxo-2,3-dihydrospiro[indene-1,5′-oxazolidine]-5-yl)-3-methylurea]",≤ 500
